Measured values as given in patent US4954156A, “N,N-dihalo-2-imidazolidinones and N-halo-2-oxazolidinones as urease and nitrification inhibitors” (Tennessee Valley Authority, priority 1989, dated 1990).
Where “and” joins values, the source holds several entries; their conditions need not be identical. Equal entries are not always repeated.

What was measured:
[1] = biological target: purified Jack Bean urease (Canavalia ensiformis, UniProt P07374); test: Aqueous system (pH stat) urease inhibition test; format: biochemical; details: 25° C
Description: (§1) Embodiment 1: Urease activity of inhibitor test compounds may be evaluated either in aqueous or in soil systems. When aqueous systems are used, urea plus a test compound with possible urease inhibition activity and relatively pure urease enzyme are incubated together to determine the effects of the test compound on urease-catalyzed hydrolysis of urea. When soil systems are used, urea and the test compound are added to moist soil, and the urease enzyme is supplied from the soil. The main disadvantage of using soil systems is that the true activity of test compounds may be masked because of reactions between the test compound and soil. Thus, basic studies for understanding chemical structure-activity relationships are usually done in aqueous systems.
Aqueous System (pH Stat) Test Procedure: The aqueous system urease inhibition tests were conducted at 25° C using purified Jack Bean urease enzyme, 50,000-80,000 units per gram, a unit of urease will liberate 1 umole of NH3 from urea per minute at pH 7.0 at 25° C.
An appropriate amount of inhibitor [such as 37.0 uL (microliters) of a 1.169×10^(-3) M (moles/liter) inhibitor solution] and 100 uL of a solution of 13.9130 mg Jack Bean urease enzyme in 10.00 mL of water were diluted to 25.00 mL. This combined solution was allowed to sit undisturbed at 23° C. for twenty (20) minutes. Then 20.0 uL of a preservative solution was added to prevent degradation of the urease enzyme during the course of the experiment. The preservative solution contained 5.655×10^-4 moles/liter ethylenediaminetetraacetic acid (disodium salt) and 1.166×10^-3) moles/liter dithiothreitol.
Immediately after the addition of the preservative solution to the inhibitor/urease solution, 800 uL of a 0.1246 M urea solution was added and a computer assisted titrimeter was started. This titrimeter maintained a constant pH of 6.97 during the course of the experiment by neutralizing the ammonia (resulting from urease hydrolysis of urea) with 0.01142 M hydrochloric acid (HCl). The volume (measured to 0.001 mL) of HCl added was automatically recorded every 15 seconds for up to 20.0 minutes or until a total volume of 2.500 mL of HCl was added.
Experiments also were conducted without inhibitor (blank) and with the inhibitor PPDA for comparison. The experiments were replicated, and the percent inhibition for each of the inhibitors at the various concentrations was calculated as follows:
% inhibition=(kinhibitor /kblank)×100 (4)
where kinhibitor and kblank are the average rates of HCl addition for the inhibitor and blank experiments, respectively. The rates of HCl addition were calculated by linear regression of the titration curves.

[2] = system: soil urease (urease-active Hastings silt loam soil); test: Banded soil system urease inhibition test (Hastings silt loam); details: 410 mg urea + 41 mg inhibitor
Description: as §1
Soil System Test Procedure: The soil system test procedure used was a modification of the previous procedures of other researchers L. A. Douglas and J. M. Bremner, Soil Biol. Biochem. 3, 309-315 (1971) and J. M. Bremner and R. L. Mulvaney, "Urease Activity in Soils," Soil Enzymes 5, R. G. Burns, editor, Academic Press, 149-195 (1978)]. In this modified procedure powdered mixtures of urea and test compounds were applied in narrow bands in the soil rather than being mixed throughout the soil. The banded configuration also results in concentration gradients of urea, urea hydrolysis products, test compounds, and test compound decomposition products similar to those in the immediate vicinity of urea granules containing the test compounds. Another advantage of the banded configuration compared with mixing throughout the soil is that slightly soluble test compounds can be easily band applied, whereas it is difficult to achieve a known degree of mixing of a small quantity of slightly soluble test compound with soil. The banded configuration also enables testing for urease inhibition under realistic soil conditions prior to the development of techniques for cogranulating a wide range of test compounds with urea.
A detailed description of the banded soil testing procedure follows. Urease-active soil (Hastings silt loam) was moistened to a moisture content of 20 percent dry weight basis) and preincubated at room temperature for two days. Plexiglas containers (6×6×6 cm) were half filled with soil and packed to a bulk density of 1.0 g/cm . Urea (410 mg) or urea (410 mg) plus inhibitor (41 mg, thoroughly mixed with the urea) was distributed in a narrow band about 0.5 cm wide and 6 cm long on the soil surface. The containers then were filled with soil, again packing to a bulk density of 1.0 g/cm^3. The containers were incubated at 25° C. for the desired reaction period, after which the containers were frozen to about -5° C. to stop urea hydrolysis. Immediately prior to extracting the remaining urea from the soil, said soil was allowed to thaw. Soil from each container was thoroughly mixed, and a 10-g sample was extracted with 100 ml of 2 M KCl containing phenylmercuric acetate to prevent urea hydrolysis during handling [L. A. Douglas and J. M. Bremner, Soil. Sci. Soc. Am. Proc. 34, 859-862 (1970)]. Urea in the extracts was determined colorimetrically as a measure of unhydrolyzed urea and the results expressed as percent unhydrolyzed urea-N.
^a The plexiglas containers measured 6 × 6 × 6 cm.
Hastings silt loam soil was utilized and packed to a bulk density of 1
gm/cm^3 dry basis. The soil was wet to near field capacity (20%
moisture) and 260 g of wetted soil (216 g dry soil) was added per
container. The containers were packed half full, urea and inhibitor were
added, and the remaining soil was added. The amount of urea added = 410 m

[3] = system: nitrification of ammonium nitrogen in soil; test: Soil nitrification inhibition test (Mountainview silt loam, banded); details: for % inhibition (nitrification) / Net mg NO2N / Net mg NO3N: 25° C, 410 mg urea + 41 mg inhibitor
Description: Embodiment 2: The N-Halamine compounds were tested for nitrification inhibition using the soil testing procedure described below.
Mountainview silt loam soil was screened through a 2 mm sieve. Plexiglas containers (8×8×6 cm) were packed half full with the soil and packed to a bulk density of 1.0 g/cm^3 and wetted to field capacity (approximately 20 weight percent moisture). The urea 410 mg per container) and inhibitor (41 mg per container) were added in a narrow band (0.5 cm wide X 6 cm long), and additional soil was added to fill the containers. The total amount of dry soil added was 384 g. The containers were incubated at 25° C. During incubation the containers were checked periodically for moisture loss and additional water added as needed to maintain moisture levels.
The individual containers were removed from the incubator at 1, 2, 3, 4, and 5 week intervals. After removal from the incubator the contents of the container were transferred to a plastic bag and thoroughly mixed. A 10-g sample of soil (dry basis) was taken from the bag and extracted with 100 ml of 2 N KCL. The extract was filtered through Whatman #41 filter paper and refrigerated until analyzed. Samples were analyzed for NO3-N- NO2-N- and urea-N using a colorimetric procedure. Some samples also were analyzed for NH4-N.
The percent nitrification inhibition was calculated according to the method of Bundy and Bremner [G. L. Bundy and J. M. Bremner, Soil Sci. Soc. Am. Proc. 37, 396-398 (1973)]
% nitrification inhibition=[(C-S)/C]×100
where C=net amount of NO3-N produced in the control (no inhibitor added), and S=net amount of NO3-N produced in the inhibitor treated sample.
^a Concentrations are in net mg/container. All containers had 384 g
soil (dry), 410 mg urea (188.6 mg N) and 41 mg inhibitor. Samples were
extracted 10 g → 100 mls 2N KCl. The formulas used for calculation
where C = net NO3N produced in control (no inhibitor), S = net
NO3N produced in inhibitor treated sample, net NO3N =
(NO3N) - (soil NO3N), and net NO2N = (NO2N) - (soil
NO2N). Values are averages of two replicate samples.

purified Jack Bean urease, sequence (P07374 whole entry, looked up): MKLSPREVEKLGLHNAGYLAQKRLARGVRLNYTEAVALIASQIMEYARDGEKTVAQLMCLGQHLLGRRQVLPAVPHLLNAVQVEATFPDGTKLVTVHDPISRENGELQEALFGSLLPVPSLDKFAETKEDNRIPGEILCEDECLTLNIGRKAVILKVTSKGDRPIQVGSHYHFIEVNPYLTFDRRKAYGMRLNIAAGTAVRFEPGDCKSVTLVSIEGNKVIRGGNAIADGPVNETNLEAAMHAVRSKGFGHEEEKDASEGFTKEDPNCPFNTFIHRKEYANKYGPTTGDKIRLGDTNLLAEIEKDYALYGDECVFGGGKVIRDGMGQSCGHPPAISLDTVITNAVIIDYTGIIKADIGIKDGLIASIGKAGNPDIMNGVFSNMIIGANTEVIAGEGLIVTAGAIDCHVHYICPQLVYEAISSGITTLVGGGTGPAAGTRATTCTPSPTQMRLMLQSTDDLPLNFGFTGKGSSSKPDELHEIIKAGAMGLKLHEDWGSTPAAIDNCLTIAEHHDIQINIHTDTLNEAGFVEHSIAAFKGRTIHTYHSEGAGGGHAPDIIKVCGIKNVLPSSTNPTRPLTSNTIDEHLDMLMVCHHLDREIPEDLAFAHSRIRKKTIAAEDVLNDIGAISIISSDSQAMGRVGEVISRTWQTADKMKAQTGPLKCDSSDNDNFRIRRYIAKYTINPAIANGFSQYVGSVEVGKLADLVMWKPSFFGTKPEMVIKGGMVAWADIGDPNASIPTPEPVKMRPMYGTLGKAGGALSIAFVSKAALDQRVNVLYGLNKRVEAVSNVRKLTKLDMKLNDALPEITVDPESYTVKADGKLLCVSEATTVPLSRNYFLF

CC1(C)N(Cl)C(=O)N(Br)C1(C)C [ABC, 1-bromo-3-chloro-4,4,5,5-tetramethyl-2-imidazolidinone]
% urease inhibition ([1]; inhibitor 0.432 x 10^-8 moles/experiment): 93% | % urease inhibition ([1]; inhibitor 1.430 x 10^-8 moles/experiment): 100% | % unhydrolyzed urea-N ([2]; 3 days incubation at 25° C): 84.71% and 84.7% | PPM urea-N ([2]; 3 days incubation at 25° C): 75.0 PPM | % unhydrolyzed urea-N ([2]; 6 days incubation at 25° C): 53.65% and 53.7% | PPM urea-N ([2]; 6 days incubation at 25° C): 47.5 PPM | % inhibition (nitrification) ([3]; 1 week): 100.0% | Net mg NO2N ([3]; 1 week): -0.05 mg/container | Net mg NO3N ([3]; 1 week): 0.0 mg/container | % inhibition (nitrification) ([3]; 2 weeks): 100.0% | Net mg NO2N ([3]; 2 weeks): 0.04 mg/container | Net mg NO3N ([3]; 2 weeks): 0.0 mg/container | % inhibition (nitrification) ([3]; 3 weeks): 100.0% | Net mg NO2N ([3]; 3 weeks): 0.08 mg/container | Net mg NO3N ([3]; 3 weeks): 0.0 mg/container | % inhibition (nitrification) ([3]; 4 weeks): 100.0% | Net mg NO2N ([3]; 4 weeks): 1.68 mg/container | Net mg NO3N ([3]; 4 weeks): 0.0 mg/container | % inhibition (nitrification) ([3]; 5 weeks): 99.6% | Net mg NO2N ([3]; 5 weeks): 1.67 mg/container | Net mg NO3N ([3]; 5 weeks): 0.8 mg/container | Nitrite accumulation in the soil ([3]; during the 5 weeks incubation, greater than with dicyandiamide): well within plant tolerance levels | percent nitrification inhibition ([3]; separate experiment (Examples VII, IX): sampled only at end of 5-week incubation, no dicyandiamide comparison): 85.6%
